In ChEMBL document CHEMBL3885861, “Open TG-GATES”:

Species on record: Rattus norvegicus
Assay: Open TG-GATES - Regimen: Daily Repeat
Type: toxicity, organism-based, Sprague-Dawley
Parameters: regimen Daily Repeat, gender Male, age 6 weeks
Details: in vivo, po, route gavage; for Bas / Eos / Fbg / Hb / Ht / Lym / MCHC / MCV / Mono / PT / Plat / RBC / Ret / WBC / Neu: tissue Blood; for ALP / ALT / AST / CRE / Ca / Cl / DBIL / GLC / IP / K / LDH / Na / PL / RALB / TBIL / TC / TG / TP / gamma-GTP / BUN: tissue Plasma
[1] = 0 mg/kg, 72 h, dose level Control, time 3 day
[2] = 0 mg/kg, […], dose level Control, time 7 day
[3] = 0 mg/kg, […], dose level Control, time 14 day
[4] = 0 mg/kg, […], dose level Control, time 28 day
[5] = 100 mg/kg, 72 h, dose level Low, time 3 day
[6] = 100 mg/kg, […], dose level Low, time 7 day
[7] = 100 mg/kg, […], dose level Low, time 14 day
[8] = 100 mg/kg, […], dose level Low, time 28 day
[9] = 300 mg/kg, 72 h, dose level Middle, time 3 day

O=C(O)c1cccnc1 [NIACIN]
TERMINAL_BW [1]: 241.1 g
Bas [1]: 0%
Eos [1]: 0.8%
Fbg [1]: 321 mg/dL
Hb [1]: 12.8 g/dL
Ht [1]: 38.2%
Lym [1]: 81.2%
MCHC [1]: 33.5%
MCV [1]: 62.4 fL
Mono [1]: 3%
PT [1]: 15.9 s
Plat [1]: 125.7 x10_4/uL
RBC [1]: 612.4 x10_4/ul
Ret [1]: 7.8%
WBC [1]: 116.2 x10_2/uL
ALP [1]: 1807.6 IU/L
ALT [1]: 48 IU/L
AST [1]: 73.2 IU/L
CRE [1]: 0.2 mg/dL
Ca [1]: 10.7 mg/dL
Cl [1]: 104.2 meq/L
DBIL [1]: 0 mg/dL
GLC [1]: 201.8 mg/dL
IP [1]: 7.7 mg/dL
K [1]: 4.4 meq/L
LDH [1]: 161.4 IU/L
Na [1]: 139.2 meq/L
PL [1]: 151.6 mg/dL
RALB [1]: 3.1 g/dL
TBIL [1]: 0 mg/dL
TC [1]: 80 mg/dL
TG [1]: 92.8 mg/dL
TP [1]: 5.6 g/dL
gamma-GTP [1]: 1.4 IU/L
TERMINAL_BW [2]: 268.8 g
TERMINAL_BW [3]: 327.5 g
TERMINAL_BW [4]: 405.7 g
Bas [2]: 0%
Eos [2]: 1%
Fbg [2]: 334.8 mg/dL
Ht [2]: 41.3%
Lym [2]: 78.2%
MCHC [2]: 34.3%
Mono [2]: 3.2%
Neu [2]: 16.8%
PT [2]: 16.5 s
Plat [2]: 116.1 x10_4/uL
RBC [2]: 681 x10_4/ul
Ret [2]: 5.5%
WBC [2]: 120.8 x10_2/uL
Bas [3]: 0%
Eos [3]: 1%
Fbg [3]: 329 mg/dL
Ht [3]: 41.5%
Lym [3]: 77.8%
MCHC [3]: 34.2%
MCV [3]: 60.4 fL
Mono [3]: 2.6%
Neu [3]: 17%
PT [3]: 15.9 s
Plat [3]: 115.7 x10_4/uL
RBC [3]: 688.8 x10_4/ul
Ret [3]: 5.1%
WBC [3]: 127.5 x10_2/uL
Bas [4]: 0%
Eos [4]: 1.2%
Fbg [4]: 331.4 mg/dL
Hb [4]: 15 g/dL
Ht [4]: 42.7%
Lym [4]: 80.6%
MCHC [4]: 35.2%
MCV [4]: 56.6 fL
Mono [4]: 2%
Neu [4]: 15%
PT [4]: 16.5 s
Plat [4]: 89.6 x10_4/uL
RBC [4]: 754.4 x10_4/ul
Ret [4]: 3%
WBC [4]: 119.1 x10_2/uL
ALP [2]: 1431.4 IU/L
ALT [2]: 37.2 IU/L
AST [2]: 67 IU/L
CRE [2]: 0.1 mg/dL
Ca [2]: 10.8 mg/dL
Cl [2]: 105.2 meq/L
DBIL [2]: 0 mg/dL
GLC [2]: 190.4 mg/dL
IP [2]: 7.4 mg/dL
K [2]: 4.2 meq/L
LDH [2]: 155.6 IU/L
Na [2]: 139.8 meq/L
PL [2]: 160.4 mg/dL
RALB [2]: 3 g/dL
TBIL [2]: 0 mg/dL
TC [2]: 78.6 mg/dL
TG [2]: 130 mg/dL
TP [2]: 5.7 g/dL
gamma-GTP [2]: 1.6 IU/L
ALP [3]: 1595.6 IU/L
AST [3]: 68 IU/L
CRE [3]: 0.2 mg/dL
Ca [3]: 10.6 mg/dL
Cl [3]: 104.2 meq/L
DBIL [3]: 0 mg/dL
GLC [3]: 198.2 mg/dL
IP [3]: 7.1 mg/dL
K [3]: 4 meq/L
LDH [3]: 163.6 IU/L
Na [3]: 138 meq/L
PL [3]: 156 mg/dL
RALB [3]: 3.1 g/dL
TBIL [3]: 0.006 mg/dL
TC [3]: 75.6 mg/dL
TG [3]: 144.2 mg/dL
TP [3]: 5.9 g/dL
gamma-GTP [3]: 1 IU/L
ALP [4]: 1086.6 IU/L
ALT [4]: 37.4 IU/L
AST [4]: 63.8 IU/L
BUN [4]: 17.8 mg/dL
CRE [4]: 0.2 mg/dL
Ca [4]: 10.1 mg/dL
Cl [4]: 106.4 meq/L
DBIL [4]: 0 mg/dL
GLC [4]: 214.4 mg/dL
IP [4]: 6.9 mg/dL
K [4]: 4.2 meq/L
LDH [4]: 150.6 IU/L
Na [4]: 142.8 meq/L
PL [4]: 149.4 mg/dL
RALB [4]: 3.1 g/dL
TBIL [4]: 0.012 mg/dL
TC [4]: 76.6 mg/dL
TG [4]: 121 mg/dL
TP [4]: 5.9 g/dL
gamma-GTP [4]: 2.4 IU/L
TERMINAL_BW [5]: 239.7 g
Bas [5]: 0%
Eos [5]: 1.2%
Fbg [5]: 317.2 mg/dL
Hb [5]: 13.7 g/dL
Ht [5]: 40.5%
Lym [5]: 70.2%
MCV [5]: 63.5 fL
Mono [5]: 4%
Neu [5]: 23.2%
Plat [5]: 107.5 x10_4/uL
RBC [5]: 637 x10_4/ul
Ret [5]: 6.9%
WBC [5]: 128.4 x10_2/uL
ALP [5]: 1717.8 IU/L
ALT [5]: 49 IU/L
AST [5]: 79.2 IU/L
BUN [5]: 16 mg/dL
CRE [5]: 0.1 mg/dL
Ca [5]: 10.8 mg/dL
Cl [5]: 104.2 meq/L
DBIL [5]: 0 mg/dL
GLC [5]: 199.8 mg/dL
IP [5]: 7.4 mg/dL
K [5]: 3.9 meq/L
LDH [5]: 171.8 IU/L
Na [5]: 139.2 meq/L
PL [5]: 163.8 mg/dL
RALB [5]: 3.1 g/dL
TBIL [5]: 0 mg/dL
TC [5]: 84.2 mg/dL
TG [5]: 110.8 mg/dL
TP [5]: 5.8 g/dL
gamma-GTP [5]: 1.2 IU/L
TERMINAL_BW [6]: 273.1 g
TERMINAL_BW [7]: 326.9 g
TERMINAL_BW [8]: 387.9 g
Bas [6]: 0%
Eos [6]: 1%
Fbg [6]: 316 mg/dL
Hb [6]: 13.5 g/dL
Ht [6]: 39.5%
Lym [6]: 82%
MCHC [6]: 34.1%
MCV [6]: 60.8 fL
Mono [6]: 3%
Neu [6]: 12.8%
PT [6]: 16 s
Plat [6]: 109.3 x10_4/uL
RBC [6]: 650 x10_4/ul
Ret [6]: 5.9%
WBC [6]: 109.2 x10_2/uL
Bas [7]: 0%
Eos [7]: 1%
Fbg [7]: 330.8 mg/dL
Ht [7]: 41.5%
Lym [7]: 75.2%
MCHC [7]: 34%
Mono [7]: 2.6%
Neu [7]: 20%
PT [7]: 15.8 s
Plat [7]: 107.6 x10_4/uL
RBC [7]: 685 x10_4/ul
Ret [7]: 4.7%
WBC [7]: 102.7 x10_2/uL
Bas [8]: 0%
Eos [8]: 1%
Fbg [8]: 330.4 mg/dL
Hb [8]: 15.2 g/dL
Ht [8]: 43.1%
Lym [8]: 83.4%
MCHC [8]: 35.3%
MCV [8]: 56 fL
Mono [8]: 2.4%
Neu [8]: 11.8%
PT [8]: 16.5 s
Plat [8]: 102.2 x10_4/uL
RBC [8]: 770 x10_4/ul
Ret [8]: 2.8%
WBC [8]: 117.4 x10_2/uL
ALP [6]: 1740.2 IU/L
ALT [6]: 44.4 IU/L
AST [6]: 69 IU/L
BUN [6]: 17.2 mg/dL
CRE [6]: 0.2 mg/dL
Ca [6]: 10.7 mg/dL
Cl [6]: 104.8 meq/L
DBIL [6]: 0 mg/dL
GLC [6]: 171.4 mg/dL
IP [6]: 7.3 mg/dL
K [6]: 4.7 meq/L
LDH [6]: 141 IU/L
Na [6]: 138.8 meq/L
PL [6]: 145 mg/dL
RALB [6]: 2.9 g/dL
TBIL [6]: 0 mg/dL
TC [6]: 66.6 mg/dL
TG [6]: 150 mg/dL
TP [6]: 5.5 g/dL
gamma-GTP [6]: 1.4 IU/L
ALP [7]: 1532.6 IU/L
ALT [7]: 42.8 IU/L
AST [7]: 73.6 IU/L
BUN [7]: 17 mg/dL
CRE [7]: 0.2 mg/dL
Ca [7]: 10.5 mg/dL
Cl [7]: 104.6 meq/L
DBIL [7]: 0 mg/dL
GLC [7]: 196.4 mg/dL
IP [7]: 6.4 mg/dL
K [7]: 4 meq/L
LDH [7]: 209 IU/L
Na [7]: 138.4 meq/L
PL [7]: 144.4 mg/dL
RALB [7]: 3 g/dL
TBIL [7]: 0.002 mg/dL
TC [7]: 66.8 mg/dL
TG [7]: 150.8 mg/dL
TP [7]: 5.8 g/dL
gamma-GTP [7]: 1.4 IU/L
ALP [8]: 1249.8 IU/L
ALT [8]: 39.8 IU/L
AST [8]: 64.6 IU/L
BUN [8]: 18.2 mg/dL
CRE [8]: 0.2 mg/dL
Ca [8]: 10.4 mg/dL
Cl [8]: 107 meq/L
DBIL [8]: 0 mg/dL
GLC [8]: 192.8 mg/dL
IP [8]: 6.5 mg/dL
K [8]: 4.2 meq/L
LDH [8]: 129.4 IU/L
Na [8]: 143.4 meq/L
PL [8]: 147.6 mg/dL
RALB [8]: 3.1 g/dL
TBIL [8]: 0.014 mg/dL
TC [8]: 70.6 mg/dL
TG [8]: 158.8 mg/dL
TP [8]: 6 g/dL
gamma-GTP [8]: 2 IU/L
TERMINAL_BW [9]: 241.8 g
Bas [9]: 0%
